Source: US7273863B1, “Benzophenones as inhibitors of reverse transcriptase” (SmithKline Beecham Corporation, priority 1999, dated 2007)

Key:
Assay in all cases: HeLa cell assay (HIV-LTR β-galactosidase reporter)
WTRVA = type: cell-based, HIV-1; details: Human immunodeficiency virus 1, Virus Type WTRVA, read-out: IC50 (nM) Range
Protocol: (§1) The HeLa cell assay was performed according to a modification of Kimpton J. and Emerman M., Detection of replication-competent and pseudotyped human immunodeficiency virus with a sensitive cell line on the basis of activation of an integrated β-galactosidase gene, J. Virol. 66:2232-2239 (1992), in which HIV-1 infection is detected by the activation of an HIV-LTR driven β-galactosidase reporter that is integrated into the genome of a CD4^+ HeLa cell line. Quantitation of β-galactosidase is achieved by measuring the activation of a chemiluminescent substrate (Tropix). The concentration of each compound required to inhibit 50% (IC50) of the HIV-1 induced β-galactosidase signal, relative to untreated controls, was determined for each isogenic, recombinant virus.
(§2) HeLa-CD4-LTR-β-gal cells were obtained from the NIH AIDS Research and Reference Reagent Program. Cells were propagated in DMEM containing 10% fetal bovine serum, 0.2 mg/ml geneticin and 0.1 mg/ml hygromycin B. Cells were routinely split by trypsinization when confluency reached 80% (approximately every 2 to 3 days).
(§3) DNA encoding the HIV-1 reverse transcriptase was subcloned from a M13 phage into a general shuttle vector, pBCSK+, as a ˜1.65 kbp EcoRI/HindIII ended DNA fragment. The HIV DNA insert of the resulting plasmid, pRT2, was completely sequenced on both strands prior to use in site directed mutagenesis experiments. Specific amino acid replacements were made using Stratagene Quick Change reagents and mutagenic oligonucleotides from Oligos. Following mutagenesis, the entire mutant RT coding sequence was verified by sequencing both DNA strands.
(§4) Mutant HIV-1 strains were isolated by a modified Recombinant Virus Assay (Kellam P. and Larder B., Recombinant virus assay: a rapid, phenotypic assay for assessment of drug susceptibility of human immunodeficiency virus type 1 isolates, Antimicrobial Agents and Chemotherapy, 38:23-30, 1994). 1×10^7 Jurkat T-cells (maintained in RPMI containing 10% fetal bovine serum, split 1:5 every 5 to 6 days) were co-transfected with EcoRI/HindIII digested mutant RT plasmid and Bst EII-digested HIV-1HXB2ΔRT DNA in the presence of DMRIE-C transfection reagent (Gibco) according to supplier's recommended protocol. Each mutant RT coding sequence was crossed into the RT-deleted HIV-1 viral DNA backbone by in vivo homologous recombination. Transfected cell cultures were expanded and monitored until syncitia formation and CPE were extensive. Virus was harvested by clear spin of the culture supernatants and frozen at −80 C as primary stock. Recombinant progeny virus was sequenced in the RT region to confirm the mutant genotype. Virus stocks were further expanded by infection of Jurkat cells, harvested and stored as frozen aliquots. Stocks were titered in HeLa MAGI cells for assay.
(§5) The HIV-1HXB2 mutants were titered in the HeLa MAGI assay system to determine the relative light units (RLU) per ml, a measure of infectivity relevant for this assay system. Virus stocks were diluted in a 2-fold series into DMEM containing 10% fetal bovine serum plus 20 ug/ml DEAE-dextran and assayed as described in the Experimental Protocol section, below.
(§6) 96-well microtiter plate(s) (Costar #3598) were seeded with 3×10^3 HeLa-CD4-LTR-β-gal in 100 μl DMEM containing 10% fetal bovine serum. Plates were placed in a 37° C., 5% CO2 humidified incubator overnight. The following day, mutant virus stocks were thawed in a room temperature water bath and diluted into DMEM containing 10% fetal bovine serum and 20 μg/ml DEAE-dextran to achieve an input of 1500 to 2000 RLU/ml. All media was removed with an 8 channel manifold aspirator and 35 μl (50 to 70 total RLUs) of diluted virus was added to each well for virus adsorption. Plates were placed in a 37° C., 5% CO2 humidified incubator for 1.5 to 2 hours.
(§7) Compound titration plates were prepared at 1.35× final concentration during the virus adsorption period. […]

[1] = tested on: isogenic HIV-1 RT mutant virus G190A; type: cell-based; details: Human immunodeficiency virus 1, HeLa, read-out: IC50 (nM) Range
Protocol: as §1, §2, §3, §4, §5, §6, §7

[2] = tested on: isogenic HIV-1 RT mutant virus K103N/G190A; type: cell-based; details: Human immunodeficiency virus 1, HeLa, read-out: IC50 (nM) Range
Protocol: as §1, §2, §3, §4, §5, §6, §7

[3] = tested on: isogenic HIV-1 RT mutant virus K103N/P225H; type: cell-based; details: Human immunodeficiency virus 1, HeLa, read-out: IC50 (nM) Range
Protocol: as §1, §2, §3, §4, §5, §6, §7

[4] = tested on: isogenic HIV-1 RT mutant virus K103N/V108I; type: cell-based; details: Human immunodeficiency virus 1, HeLa, read-out: IC50 (nM) Range
Protocol: as §1, §2, §3, §4, §5, §6, §7

[5] = tested on: isogenic HIV-1 RT mutant virus K103N/Y181C; type: cell-based; details: Human immunodeficiency virus 1, HeLa, read-out: IC50 (nM) Range
Protocol: as §1, §2, §3, §4, §5, §6, §7

[6] = tested on: isogenic HIV-1 RT mutant virus K103N; type: cell-based; details: Human immunodeficiency virus 1, HeLa, read-out: IC50 (nM) Range
Protocol: as §1, §2, §3, §4, §5, §6, §7

[7] = tested on: isogenic HIV-1 RT mutant virus L100I; type: cell-based; details: Human immunodeficiency virus 1, HeLa, read-out: IC50 (nM) Range
Protocol: as §1, §2, §3, §4, §5, §6, §7

[8] = tested on: isogenic HIV-1 RT mutant virus P225H; type: cell-based; details: Human immunodeficiency virus 1, HeLa, read-out: IC50 (nM) Range
Protocol: as §1, §2, §3, §4, §5, §6, §7

[9] = tested on: isogenic HIV-1 RT mutant virus P236L; type: cell-based; details: Human immunodeficiency virus 1, HeLa, read-out: IC50 (nM) Range
Protocol: as §1, §2, §3, §4, §5, §6, §7

[10] = tested on: isogenic HIV-1 RT mutant virus V106A/Y181C; type: cell-based; details: Human immunodeficiency virus 1, HeLa, read-out: IC50 (nM) Range
Protocol: as §1, §2, §3, §4, §5, §6, §7

[11] = tested on: isogenic HIV-1 RT mutant virus V106I/Y181C; type: cell-based; details: Human immunodeficiency virus 1, HeLa, read-out: IC50 (nM) Range
Protocol: as §1, §2, §3, §4, §5, §6, §7

[12] = tested on: isogenic HIV-1 RT mutant virus V106I; type: cell-based; details: Human immunodeficiency virus 1, HeLa, read-out: IC50 (nM) Range
Protocol: as §1, §2, §3, §4, §5, §6, §7

[13] = tested on: isogenic HIV-1 RT mutant virus V108I/Y181C; type: cell-based; details: Human immunodeficiency virus 1, HeLa, read-out: IC50 (nM) Range
Protocol: as §1, §2, §3, §4, §5, §6, §7

[14] = tested on: isogenic HIV-1 RT mutant virus Y181C; type: cell-based; details: Human immunodeficiency virus 1, HeLa, read-out: IC50 (nM) Range
Protocol: as §1, §2, §3, §4, §5, §6, §7

[15] = tested on: isogenic HIV-1 RT mutant virus V108I; type: cell-based; details: Human immunodeficiency virus 1, HeLa, read-out: IC50 (nM) Range
Protocol: as §1, §2, §3, §4, §5, §6, §7

| SMILES | IC50 (WTRVA) | IC50 [1] | IC50 [2] | IC50 [3] | IC50 [4] | IC50 [5] | IC50 [6] | IC50 [7] | IC50 [8] | IC50 [9] | IC50 [10] | IC50 [11] | IC50 [12] | IC50 [13] | IC50 [14] | IC50 [15] |
| --- | --- | --- | --- | --- | --- | --- | --- | --- | --- | --- | --- | --- | --- | --- | --- | --- |
| Cc1cc(C#N)cc(C(=O)c2cc(Cl)ccc2OCC(=O)Nc2ccc(S(N)(=O)=O)cc2C)c1 [Compound 564] | < 10 nM | < 10 nM | < 10 nM | < 10 nM | < 10 nM | < 10 nM | < 10 nM | < 10 nM | < 10 nM | < 10 nM | < 10 nM | < 10 nM | < 10 nM | < 10 nM | < 10 nM |  |
| Cc1cc(S(N)(=O)=O)ccc1NC(=O)COc1ccc(Cl)cc1C(=O)c1cccc(C#N)n1 [Compound 637] | < 10 nM | < 10 nM | < 10 nM | < 10 nM | < 10 nM | < 10 nM | < 10 nM | < 10 nM | < 10 nM | < 10 nM | < 10 nM | < 10 nM | < 10 nM | < 10 nM | < 10 nM |  |
| Cc1cc(S(N)(=O)=O)ccc1NC(=O)COc1ccc(Cl)cc1C(=O)c1cc(F)cc(F)c1 [Compound 62] | < 10 nM | < 10 nM | 11 to 100 nM | < 10 nM | < 10 nM | 11 to 100 nM | < 10 nM | < 10 nM | < 10 nM | 11 to 100 nM | 11 to 100 nM | 11 to 100 nM | < 10 nM | < 10 nM | < 10 nM | < 10 nM |
| Cc1cc(S(N)(=O)=O)ccc1NC(=O)COc1ccc(Cl)cc1C(=O)c1cc(F)cc(C(F)(F)F)c1 [Compound 78] | < 10 nM | < 10 nM | 11 to 100 nM | < 10 nM | < 10 nM | < 10 nM | < 10 nM | < 10 nM | < 10 nM | < 10 nM | 11 to 100 nM |  |  | 11 to 100 nM | < 10 nM | < 10 nM |
| Cc1cc(C)cc(C(=O)c2cc(Cl)ccc2OCC(=O)Nc2ccc(S(N)(=O)=O)cc2C)c1 [Compound 478] | < 10 nM | < 10 nM | < 10 nM | < 10 nM | < 10 nM | < 10 nM | < 10 nM | < 10 nM | < 10 nM | < 10 nM | < 10 nM | < 10 nM | < 10 nM | < 10 nM | < 10 nM | < 10 nM |
| Cc1cc2nc[nH]c2cc1NC(=O)COc1ccc(Cl)cc1C(=O)c1cc(F)cc(C(F)(F)F)c1 [Compound 239] | < 10 nM | < 10 nM | 11 to 100 nM | < 10 nM | < 10 nM | 11 to 100 nM | < 10 nM | < 10 nM | < 10 nM | < 10 nM | 101 to 1000 nM | < 10 nM | < 10 nM | < 10 nM | < 10 nM | < 10 nM |
| Cc1cc(OCCCS(N)(=O)=O)ccc1NC(=O)COc1ccc(Cl)cc1C(=O)c1cc(F)cc(C(F)(F)F)c1 [Compound 257] | < 10 nM | < 10 nM | 11 to 100 nM | < 10 nM | < 10 nM | < 10 nM | < 10 nM | < 10 nM | < 10 nM | < 10 nM | 11 to 100 nM | 11 to 100 nM | < 10 nM | < 10 nM | < 10 nM | < 10 nM |
| Cc1cc2cn[nH]c2cc1NC(=O)COc1ccc(Cl)cc1C(=O)c1cccc(C#N)c1 [Compound 453] | < 10 nM | < 10 nM | 11 to 100 nM | < 10 nM | < 10 nM | < 10 nM | < 10 nM | < 10 nM | < 10 nM | 11 to 100 nM | 11 to 100 nM | 11 to 100 nM | < 10 nM | < 10 nM | < 10 nM | 101 to 1000 nM |
| Cc1cc(C#N)cc(C(=O)c2cc(Cl)ccc2OCC(=O)Nc2ccc(S(N)(=O)=O)nc2C)c1 [Compound 503] | < 10 nM | < 10 nM | < 10 nM | < 10 nM | < 10 nM | < 10 nM | < 10 nM | < 10 nM | < 10 nM | < 10 nM | < 10 nM | < 10 nM | < 10 nM | < 10 nM | < 10 nM | < 10 nM |
| Cc1cc(C#N)cc(C(=O)c2cc(Cl)ccc2OCC(=O)Nc2cnc(S(N)(=O)=O)cc2C)c1 [Compound 587] | < 10 nM | < 10 nM | < 10 nM | < 10 nM | < 10 nM | < 10 nM | < 10 nM | < 10 nM | < 10 nM | < 10 nM | < 10 nM | 11 to 100 nM | < 10 nM | < 10 nM | < 10 nM | < 10 nM |
| Cc1cc(S(N)(=O)=O)ccc1NC(=O)COc1ccc(Cl)cc1C(=O)c1cc(F)cc(C#N)c1 [Compound 491] | < 10 nM | < 10 nM | 11 to 100 nM | < 10 nM | < 10 nM | < 10 nM | < 10 nM | < 10 nM | < 10 nM | < 10 nM | < 10 nM | 11 to 100 nM | < 10 nM | < 10 nM | < 10 nM | < 10 nM |
| Cc1cc(S(N)(=O)=O)ccc1NC(=O)COc1ccc(Cl)cc1C(=O)c1cccc(C#N)c1 [Compound 448] |  | < 10 nM | 11 to 100 nM | < 10 nM | < 10 nM | 11 to 100 nM | < 10 nM | < 10 nM | < 10 nM | 11 to 100 nM | 11 to 100 nM | 11 to 100 nM | < 10 nM | < 10 nM | < 10 nM | < 10 nM |
